Measurements taken from patent US6978724B2, “Copper complexes and their use as wood preservatives” (E.I. Du Pont de Nemours and Company, priority 2002, dated 2005).

Tests used:
[1] = tested on: white, hairy fungus; assay: Soil burial of pressure-imbibed SYP wooden stakes in flower pots, visual examination; settings: SYP stakes imbibed at 5000 ppm copper, 155 psi; about 3/4 buried in moist non-sterile soil, greenhouse at 78° C, after 5 months
Protocol: Two pre-weighed SYP wooden stakes (¾″×¾″×12″ or ¾″×1½″×12″) were loaded into a hastaloy pressure vessel and covered with imbibement solution at room temperature. The imbibement solution was prepared by diluting the preparations given in Example 1 with water to a copper concentration of 5000 ppm. The vessel was evacuated for 5 min and then pressured with nitrogen for 1 h at 155 psi at which time the pressure was removed. The stakes were then removed from the vessel and allowed to drip dry. Weights were then recorded to insure that the wood was penetrated with the imbibement solution. The stakes were then dried overnight in a convection oven at 55° C. Weights of the dried stakes were then recorded.
These treated stakes along with control (untreated) stakes were labeled and buried in a flower pot with about ¾ of the wood below the surface of non-sterile soil. The flower pots were kept moist in a greenhouse at […]. After 5 months, the stakes were visually examined.

[2] = tested on: non-sterile soil; assay: Ground burial exposure of treated newsprint and cardboard; settings: newsprint soaked 5 min in 5000 ppm copper solution; buried in moist non-sterile garden soil 90 days, 18 to 24° C
Description: Cellulosic materials, including newsprint and cardboard samples, treated with copper amidoxime or hydroxamic acid complexes are preserved after being buried in non-sterile soil for 90 days. (Procedure adapted from: Hussey, S. W., More Brownie Girl Scout Try-Its, Girl Scouts of the U.S.A., 81 (1989).) In the same soil, untreated newsprint and cardboard samples were consumed microbially resulting in disintegration of the materials. Given that the composition of mechanically pulped newsprint closely resembles that of coniferous trees (Table 1, U.S. Pat. No. 5,582,682), this method serves as a rapid test for screening for preservatives of wood.
The imbibement solution was prepared by diluting the preparations given in Example 1 with water to a copper concentration of 5000 ppm. Samples of newsprint were soaked in solutions of the copper complexes for 5 min. The paper was removed from the imbibing solution, blotted nearly dry, air-dried overnight, and then placed in sacks made from nylon stockings. The sacks were labeled and closed with nylon twist-ties. Control samples of untreated newsprint were placed in similar nylon sacks. The sacks of treated and untreated newsprint were buried in clay pots containing moist, non-sterile garden soil for 90 days and maintained at approximately 18 to 24° C. After 90 days the sacks were unburied, opened, and the contents examined for decomposition. […]

Substance: Copper Complex of the Amidoxime of Sorbitol [Example 1]
- visual examination of stakes for covering of white, hairy fungus below the soil surface [1]: showed no such covering
- decomposition of treated newsprint [2]: still intact and the printing was still legible
